Experimental data reported in the OPERA property sets (Mansouri et al. 2018).
Values after ≈ are worked out from the molar mass of the structure shown. Where a SMILES comes first, the peptide text is derived from it.

Conditions: not given

| Compound | solubility |
| --- | --- |
| O=S(=O)(O)c1cc(O)c2cc(Nc3ccccc3)ccc2c1 | 10.6 mM (≈ 3330 µg/mL) |
| NCCCNc1ccccc1 | 22.2 mM (≈ 3330 µg/mL) |
| CCN(CC)C(=O)N(CC)CC | 232 mM (≈ 40000 µg/mL) |
| O=C(O)CCCNC(=O)c1ccccc1 | 62.7 mM (≈ 13000 µg/mL) |
| CCCC(Br)(CCC)C(N)=O | 14.9 mM (≈ 3300 µg/mL) |
| COCCOC(=O)CCCCC(=O)OCCOC | 54.1 mM (≈ 14200 µg/mL) |
| O=C(O)/C=C/CBr | 182 mM (≈ 30000 µg/mL) |
| CC12CCC(C(CO)C1=O)C2(C)C (centres undefined) | 610 mM (≈ 111000 µg/mL) |
| CC(=O)OC(C)C#N (centres undefined) | 1770 mM (≈ 200000 µg/mL) |
| Oc1ccccc1Oc1ccccc1 | 0.591 mM (≈ 110 µg/mL) |
| CCOC(OCC)C(C)=O | 622 mM (≈ 91000 µg/mL) |
| O=[N+]([O-])CCl | 524 mM (≈ 50000 µg/mL) |
| CC(C)C[C@H](N)C(=O)N[C@@H](C)C(=O)NCC(=O)O (H-Leu-Ala-Gly-OH) | 127 mM (≈ 33000 µg/mL) |
| NC(=O)C[C@H](NC(=O)CCl)C(=O)O | 479 mM (≈ 100000 µg/mL) |
| Cn1cnc2nc(Cl)nc(NN)c21 | 72 mM (≈ 14300 µg/mL) |
| O=C(c1ccc(Cl)cc1Cl)N(O)c1ccccc1 | 0.213 mM (≈ 60 µg/mL) |
| NNC(=O)[C@H](O)[C@@H](O)[C@H](O)[C@H](O)CO | 317 mM (≈ 66700 µg/mL) |
| NC(CS(=O)(=O)c1ccc(Cl)cc1)C(=O)O (centres undefined) | 2.93 mM (≈ 774 µg/mL) |
| Cc1ccc(NO)cc1 | 162 mM (≈ 20000 µg/mL) |
| CC1(C)OC(=O)c2cc3ccccc3cc21 | 1.04 mM (≈ 220 µg/mL) |
| Nc1ccc(CC(=O)c2ccccc2)cc1 | 15.7 mM (≈ 3310 µg/mL) |
| CCOC(=O)C(CC(=O)O)=C(c1ccccc1)c1ccccc1 | 6.44 mM (≈ 2000 µg/mL) |
| COCCCCC=O | 2870 mM (≈ 333000 µg/mL) |

Same assay, conditions: 20 °C

| Compound | solubility |
| --- | --- |
| Nc1nc(N)nc(Cl)n1 | 4.12 mM (≈ 600 µg/mL) |
| CCOC(=O)c1ccccc1C(=O)c1ccccc1 | 0.393 mM (≈ 100 µg/mL) |
| O=C(O)C(Cl)=C(Br)Br | 205 mM (≈ 54300 µg/mL) |
| CC(=O)Nc1ccc(F)cc1C | 43.7 mM (≈ 7310 µg/mL) |
| COCc1ccccc1 | 24.6 mM (≈ 3000 µg/mL) |
| CC(C)Cc1ncc[nH]1 | 89.4 mM (≈ 11100 µg/mL) |
| O=C(O)C=C(CC(=O)O)C(=O)O | 2450 mM (≈ 427000 µg/mL) |
| OCc1c(Cl)c(Cl)c(Cl)c(Cl)c1Cl | 0.00713 mM (≈ 2 µg/mL) |
| CCOC(=O)c1c(C)oc(C)c(C(=O)OCC)c1=O | 29.8 mM (≈ 8000 µg/mL) |
| CCC(CC)(CC)NC(N)=O | 15.2 mM (≈ 2400 µg/mL) |
| NC1=NC2=NC=NC2C(C(F)(F)F)=N1 (centres undefined) | 0.733 mM (≈ 149 µg/mL) |
| O=c1cc[nH]cn1 | 3850 mM (≈ 370000 µg/mL) |
| NC(=S)Nc1cccc([N+](=O)[O-])c1 | 35.5 mM (≈ 7000 µg/mL) |
| CC(=O)Nc1ccc(Br)cc1C | 17.5 mM (≈ 4000 µg/mL) |
| O=[N+]([O-])c1cccc(CO)c1 | 3.85 mM (≈ 590 µg/mL) |
| S=c1[nH]sc(=S)[nH]1 | 17.3 mM (≈ 2600 µg/mL) |
| CC1(C)C2CCC1(C)C(N)(C(=O)O)C2 (centres undefined) | 25.3 mM (≈ 5000 µg/mL) |
| CCOC(=O)C(C)=CC(=O)[O-] | 94.2 mM |
| O=C(O)c1ccccc1C(=O)c1ccc(Cl)cc1 | 1.92 mM (≈ 500 µg/mL) |
| OCc1ccc(Cl)cc1Cl | 5.65 mM (≈ 1000 µg/mL) |
| O=C(Nc1ccccc1)C(Cl)Cl | 0.441 mM (≈ 90 µg/mL) |
| C=CS(=O)(=O)Nc1ccccc1 | 31.7 mM (≈ 5800 µg/mL) |
| O=c1nccc[nH]1 | 4730 mM (≈ 455000 µg/mL) |

| Compound | solubility |
| --- | --- |
| NC(=O)C(Br)Br | 87.6 mM (≈ 19000 µg/mL) |
| OCc1ccc(Cl)cc1 | 17.5 mM (≈ 2500 µg/mL) |
| NC(=O)C(N)C(O)C(=O)O (centres undefined) | 70.9 mM (≈ 10500 µg/mL) |
| CC=CC(=O)Nc1ccc(O)cc1 | 2.26 mM (≈ 400 µg/mL) |
| O=c1[nH]ccc2cccnc12 | 72 mM (≈ 10500 µg/mL) |
| NC(=O)NC(=O)C=CC(=O)O | 12 mM (≈ 1900 µg/mL) |
| OCc1ccc(O)cc1 | 54 mM (≈ 6700 µg/mL) |
| O/N=C1\C=CCCC1 | 146 mM (≈ 16200 µg/mL) |
| CCCCC1(CCCC)C(=O)NC(=O)NC1=O | 1.33 mM (≈ 320 µg/mL) |
| O=[N+]([O-])c1ccccc1CO | 32.7 mM (≈ 5000 µg/mL) |
| O=c1ncc2[nH]cnc2[nH]1 | 19.3 mM (≈ 2630 µg/mL) |
| COC(=O)c1ccc([N+](=O)[O-])cc1C(=O)O | 8.79 mM (≈ 1980 µg/mL) |
| O=c1ccc(I)c[nH]1 | 18.1 mM (≈ 4000 µg/mL) |
| Cc1cc(C)nc(C(N)=O)n1 | 1320 mM (≈ 200000 µg/mL) |
| CC(=O)N[C@@H](CSc1ccc(Cl)c(Cl)c1)C(=O)O | 1.3 mM (≈ 400 µg/mL) |
| NC(N)=Nc1nc2ccccc2s1 | 3.62 mM (≈ 696 µg/mL) |
| O=C(O)C(I)=C(Br)I | 51.4 mM (≈ 20700 µg/mL) |
| O=[N+]([O-])c1ccc(CO)cc1 | 13.1 mM (≈ 2000 µg/mL) |
| CN[C@@H](Cc1ccc(O)cc1)C(=O)O | 7.37 mM (≈ 1440 µg/mL) |
| Cc1csc(=S)n1CC(=O)O | 10.9 mM (≈ 2060 µg/mL) |
| S=c1nc[nH]c2nccnc12 | 2.25 mM (≈ 370 µg/mL) |
| NNC(N)=S | 110 mM (≈ 10000 µg/mL) |

Same assay, conditions: 22 °C

| Compound | solubility |
| --- | --- |
| O=C1CCCCCCCCCN1 | 13 mM (≈ 2200 µg/mL) |
| CC(=O)OCCS | 31.6 mM (≈ 3800 µg/mL) |
| COCOC(=O)c1ccccc1O | 5.01 mM (≈ 913 µg/mL) |

Same assay, conditions: 23 °C

| Compound | solubility |
| --- | --- |
| NC(=S)NNC(N)=S | 16 mM (≈ 2400 µg/mL) |
| CCCC(N)C(=O)O (racemic) | 805 mM (≈ 94300 µg/mL) |

Same assay, conditions: 24 °C

| Compound | solubility |
| --- | --- |
| c1ccc(CNCCNCc2ccccc2)cc1 | 16.3 mM (≈ 3930 µg/mL) |

Same assay, conditions: 25 °C

| Compound | solubility |
| --- | --- |
| CCC(O)CCC(C)C (centres undefined) | 11.8 mM (≈ 1540 µg/mL) |
| CCCOCCC(=O)OCCC | 20.7 mM (≈ 3600 µg/mL) |
| CCCCC(O)CN(N=Cc1ccc([N+](=O)[O-])o1)C(N)=O (centres undefined) | 0.268 mM (≈ 80 µg/mL) |
| c1ccc(-c2cccnc2)nc1 | 256 mM (≈ 40000 µg/mL) |
| CCCCOC(=O)NS(N)(=O)=O | 91.7 mM (≈ 18000 µg/mL) |
| CC(CCC(=O)O)NC(=O)c1ccccc1 (centres undefined) | 20.3 mM (≈ 4500 µg/mL) |
| Sc1nc2ccccc2o1 | 6.61 mM (≈ 1000 µg/mL) |
| CC(CC(C)C(=O)O)C(=O)O (centres undefined) | 350 mM (≈ 56000 µg/mL) |
| C[Si](C)(C)CCN | 15.6 mM (≈ 1830 µg/mL) |
| CCC1OC(=O)c2cc([N+](=O)[O-])ccc21 (centres undefined) | 2.82 mM (≈ 584 µg/mL) |
| CC(=O)CC(=O)c1ccccc1 | 2.36 mM (≈ 383 µg/mL) |
| Oc1cnn(-c2ccccc2)c1 | 10.9 mM (≈ 1750 µg/mL) |
| O=C(O)CC[Se][Se]CCC(=O)O | 5.39 mM (≈ 1640 µg/mL) |
| O=C(O)c1ccc([N+](=O)[O-])c(C(=O)O)c1 | 45.8 mM (≈ 9670 µg/mL) |
| Cc1ccccc1OCC(=O)O | 3.61 mM (≈ 600 µg/mL) |
| C[Si](C)(O)O[Si](C)(C)O | 661 mM (≈ 110000 µg/mL) |
| CCCCC(CC)COC(=O)NS(N)(=O)=O (centres undefined) | 3.96 mM (≈ 1000 µg/mL) |
| CCOCCC(=O)OC | 847 mM (≈ 112000 µg/mL) |
| O=C(O)CCC[Se][Se]CCCC(=O)O | 5.66 mM (≈ 1880 µg/mL) |
| O=C1OCc2ccc(Br)cc21 | 2.25 mM (≈ 480 µg/mL) |
| COCCCl | 846 mM (≈ 80000 µg/mL) |
| O=C(O)CCC(=O)c1cccc2ccccc12 | 0.329 mM (≈ 75 µg/mL) |

| Compound | solubility |
| --- | --- |
| CCCCCCCCCOC(=O)c1cccnc1 | 0.802 mM (≈ 200 µg/mL) |
| O=C(O)CNC(=S)SCC(=O)O | 50 mM (≈ 10500 µg/mL) |
| CCC/C(=C\C(=O)O)C(=O)O | 70.2 mM (≈ 11100 µg/mL) |
| Cc1cccc(CO)c1 | 409 mM (≈ 50000 µg/mL) |
| NNC(=O)CC(=O)NN | 757 mM (≈ 100000 µg/mL) |
| NC(=O)NCCC(=O)O | 158 mM (≈ 20900 µg/mL) |
| CCCCCNC(=O)C(C)O (centres undefined) | 414 mM (≈ 66000 µg/mL) |
| Cc1nc(Br)[nH]c1[N+](=O)[O-] | 16.2 mM (≈ 3330 µg/mL) |
| COC1CC1 | 763 mM (≈ 55000 µg/mL) |
| O=Cc1ccc(O)c(C(=O)O)c1 | 2.32 mM (≈ 385 µg/mL) |
| O=[N+]([O-])c1cc([N+](=O)[O-])c(-c2ccccc2)cc1O | 0.0346 mM (≈ 9 µg/mL) |
| CC1=C(C(=O)O)CCC1(C)C | 1.3 mM (≈ 200 µg/mL) |
| CCCOC(=O)CCOC | 219 mM (≈ 32000 µg/mL) |
| O=C(O)C(S)CCC(S)C(=O)O (centres undefined) | 3.34 mM (≈ 703 µg/mL) |
| O=C(O)CCCCCCNS(=O)(=O)c1ccccc1 | 8.97 mM (≈ 2560 µg/mL) |
| CC(=O)NC(=O)NC(C)=O | 486 mM (≈ 70000 µg/mL) |
| CCC(=O)OC(C)C(=O)OC (centres undefined) | 137 mM (≈ 22000 µg/mL) |
| CCCCOP(=O)(O)OCCCC | 81.8 mM (≈ 17200 µg/mL) |
| O=C(Nc1ccccn1)c1cccnc1 | 1.05 mM (≈ 210 µg/mL) |
| CCCCCCCCCCOC(=O)c1cccnc1 | 0.646 mM (≈ 170 µg/mL) |
| CC(=O)NCCNC(C)=O | 4740 mM (≈ 683000 µg/mL) |

Same assay, conditions: 26 °C

| Compound | solubility |
| --- | --- |
| O=C(S)CCCCCCCCC(=O)S | 0.853 mM (≈ 200 µg/mL) |

Same assay, conditions: 28 °C

| Compound | solubility |
| --- | --- |
| NC(=O)NCNC(N)=O | 223 mM (≈ 29400 µg/mL) |

Same assay, conditions: 30 °C

| Compound | solubility |
| --- | --- |
| CCN(CC)C(C#N)c1ccccc1 (centres undefined) | 106 mM (≈ 20000 µg/mL) |
| CC(=O)c1cccs1 | 111 mM (≈ 14000 µg/mL) |
| CCCOc1ccc(NC(C)=O)cc1 | 0.88 mM (≈ 170 µg/mL) |
| COC(=O)c1ccc(O)c(Br)c1 | 0.684 mM (≈ 158 µg/mL) |
| CCCn1c(=O)c2c(ncn2C)n(C)c1=O | 61.9 mM (≈ 13800 µg/mL) |
